This note sets out measurements from US6683028B1, “Cyclic guanidine derivatives and their use as pesticides” (Bayer Aktiengesellschaft, priority 1999, dated 2004).

Data set [1] has as its system peach aphid (Myzus persicae). The experiment in a line: Myzus Test. The data set is classed as in vivo. To be noted: active compound concentration of 0.1%; after 6 days; cabbage leaves dipped. How it is done: (§1) Solvent: 7 parts by weight of dimethylformamide
(§2) Emulsifier: 1 part by weight of alkylaryl polyglycol ether
To produce a suitable preparation of active compound, 1 part by weight of active ingredient is mixed with the stated amount of solvent and the stated amount of emulsifier, and the concentrate is diluted with water to the desired concentration.
Cabbage leaves (Brassica oleracea) which are heavily infested by the peach aphid (Myzus persicae) are treated by being dipped into the preparation of active compound of the desired concentration.
After the desired period of time, the kill in % is determined. 100% means that all aphids have been killed; 0% means that none of the aphids have been killed.

Data set [2] concerns mustard beetle larvae (Phaedon cochleariae). The experiment in a line: Phaedon Larvae Test. The data set is classed as in vivo. To be noted: active compound concentration of 0.1%; after 7 days; cabbage leaves dipped. How it is done: as §1, §2
To produce a suitable preparation of active compound, 1 part by weight of active compound is mixed with the stated amount of solvent and the stated amount of emulsifier, and the concentrate is diluted with water to the desired concentration.
Cabbage leaves (Brassica oleracea) are treated by being dipped into the preparation of active compound of the desired concentration and are populated with mustard beetle larvae (Phaedon cochleariae) while the leaves are still moist.
After the desired period of time, the kill in % is determined. 100% means that all beetle larvae have been killed; 0% means that none of the beetle larvae have been killed.

Data set [3] is described as follows: logP determination by HPLC (EEC directive 79/831 Annex V. A8). The data set is classed as physicochemical. To be noted: pH = 2; HPLC gradient method, acetonitrile/0.1% aqueous phosphoric acid. The procedure: [logP=the logP values were determined in accordance with EEC directive 79/831 Annex V. A8 by HPLC (gradient method, acetonitrile/0.1% aqueous phosphoric acid)]

What is called chromatographic logP is lipophilicity estimated from chromatographic retention. In the case of `CCCOCN1COCN(Cc2cnc(Cl)s2)C1=N[N+](=O)[O-]` [Example 1, 3-(2-chloro-thiazol-5-yl-methyl)-4-nitroimino-5-n-propoxymethyl-perhydro-1,3,5-oxadiazine], the kill in data set [1] and in data set [2] was 100% in each case. In data set [3], the chromatographic logP came to 1.7.
